Laboratory results published in US20190282632A1, “METHODS AND PRODUCTS FOR MODULATING MICROBIOTA COMPOSITION FOR IMPROVING THE EFFICACY OF A CANCER TREATMENT WITH AN IMMUNE CHECKPOINT BLOCKER” (INSTITUT GUSTAVE ROUSSY, priority 2014, published 2019).
“Also recorded” adds a separate entry of the source. Where two headings read alike, the source gives them in different places.

Legend:
MCA205 sarcoma = test: Tumor growth of established MCA205 sarcoma under anti-CTLA4 (9D9) therapy, with antibiotics, gene-deficient hosts, co-administered mAbs or oral bacteria; settings: for Effect of antibiotic regimen on the antitumor effects of 9D9 Ab against MCA205 sarcomas: SPF mice, antibiotics in drinking water
Description: Mice were subcutaneously injected into the right flank with 1×10^6 MCA205-0VA or MC38, or with 0.2×10^6 CT26 tumor cell lines. When tumors reached a size of 25 to 40 mm^2 (day 0), mice were injected intraperitoneally (i.p) with 100 μg of anti-CTLA-4 mAb (clone 9D9) or isotype control (clone MPC11). Mice were injected 5 times at 3-day intervals with 9D9, and tumor size was routinely monitored by means of a caliper. In order to evaluate the synergistic effect of vancomycin and anti-CTLA4, a prophylactic setting was established. […] In experiments using anti-IL-12p40 mAb (clone C17.8, 500 μg per mouse) or anti-Ly6G mAb (clone 1A8, 200 μg per mouse), mAbs (or their isotype controls, clone 2A3 in both cases) were injected i.p. every 2 days starting from day 0 until the final anti-CTLA-4 injection. […] All mAbs for in vivo use were obtained from BioXcell (West Lebanon, N.H., USA), using the recommended isotype control mAbs. The inhibitor of iNOS, NG-monomethyl-L-arginine (L-NMMA; Sigma), was administered in PBS daily to mice i.p. at a dose of 2 mg per mouse from the start of anti-CTLA4 treatment.
Mice were treated with antibiotics 2-3 weeks before tumor implantation and continued on antibiotics until the end of the experiment. A mix of ampicillin (1 mg/ml), streptomycin (5 mg/ml), and colistin (1 mg/ml) (Sigma-Aldrich), or vancomycin alone (0.25 mg/ml), or imipenem alone (0.25 mg/ml), or colistin alone (2.103 U/ml) were added in sterile drinking water. Solutions and bottles were changed 2-3 times a week, or daily for experiments with imipenem. Antibiotic activity was confirmed by macroscopic changes observed at the level of caecum (dilatation) and by cultivating the fecal pellets resuspended in BHI+15% glycerol at 0.1 g/ml on blood agar plates for 48 h at 37° C. with 5% CO2 in aerobic or anaerobic conditions.
For inoculation of GF mice or mice treated with broad-spectrum antibiotics, colonization was performed the day following the first anti-CTLA4 injection by oral gavage with 100 μl of suspension containing 1×10^9 bacteria. Efficient colonization was checked by culture of feces 48 h post oral gavage. Bacteroides fragilis, Bacteroides thetaiotaomicron, Bacteroides distasonis, Bacteroides uniformis, Lactobacillus plantarum and Enterococcus hirae were grown on COS agar plates (Biomerieux) for 48 h at 37° C. with 5% CO2 in anaerobic conditions. E. coli and Burkholderia cepacia were grown on COS agar plates for 24 h at 37° C. with 5% CO2 in aerobic conditions. Bacteria were harvested from the agar plates, suspended in sterile PBS, centrifuged and washed once with PBS, then resuspended in sterile PBS at an optical density (600 nm) of 1, which corresponds approximately to 1×10^9 colony-forming units (CFU)/ml. In cases where more than one bacteria was administered, an equal volume of each bacteria suspension was mixed to give a suspension of equal proportion of each type of bacteria, to a total 1×10^9 bacteria/ml. For bacteria reconstitution experiments using mice previously treated with antibiotics, antibiotics treatment was stopped after 2-3 weeks at the first anti-CTLA4 injection, and mice were orally gavaged with 1×10^9 CFU the following day. B. distasonis, B. uniformis, E. hirae, and E. coli isolates used in the experiments were originally isolated from feces or mesenteric lymph nodes of SPF mice treated with anti-CTLA4 and identified as described above. […] LPS-EK and LTA-SA (Invivogen) were administrated by oral gavage, at a dose of 500 μg per mouse.

[1] = tested on: small intestine and colon; test: Histology and histopathological scoring of gut tissue; assay type: in vivo, mice; settings: vancomycin-treated tumor bearers
Description: The whole small intestine (duodenum, jejunum and ileum) and the colon were removed, cleaned from feces and fixed in 4% PFA for 1 h. Rehydratation of the tissue was performed in 15% sucrose for 1 h and in 30% sucrose overnight. Small intestines or colons were cut longitudinally, with the resulting ribbons rolled, then embedded in optimum cutting temperature (OCT) compound (Sakura), snap frozen, and longitudinal 6 μm sections were prepared. For histological analysis, longitudinal sections were counterstained with hematoxilin and eosin. For histological quantitative analysis, inflammatory foci, appearance of the submucosa, length of villi, and the thickness of lamina propria were scored for each section by a pathologist.

[2] = tested on: bacterial families and orders in feces; test: 454 pyrosequencing of 16S rRNA gene amplicons of feces from tumor bearers
Description: Fecal samples used in this study were collected before or after one injection of anti-CTLA4 (or isotype control) from mice under vancomycin regimen or water, and were kept at −80° C. until further analysis. Library preparation and sequencing were conducted at GATC Biotech AG (Konstanz, Germany).

CD4+CD45RO+ T cells = test: Recall of human CD4+ T cell responses directed against commensals (IFNγ, IL-10); assay type: cell-based
Description: (§1) All clinical studies were conducted after informed consent of the patients, following the guidelines of the Declaration of Helsinki. Peripheral blood mononuclear cells (PBMC) were provided by Gustave Roussy (Villejuif, France) and by the Department of Radiation Oncology (New York University, New York, N.Y., USA). Patients were included in the following protocols: LUDWIG: MAGE3 protein—based vaccines (25), Meladex vaccine Phase I trial (26), Mel-Ipi-Rx, NCT01557114 (European Union Drug Regulating Authorities clinical trial EudraCT 2010-020317-93) and a pilot study approved by the Kremlin Bicetre Hospital Ethics Committee (n° SC12-018; ID RCB: 2012-A01496-37). Ipilimumab/radiotherapy abscopal effect trials in MM and NSCLC at NYU (Study code: NCT01689974, Study code: NCT0222173). MM patients at baseline were investigated prior to vaccine injections in the Ludwig and Meladex protocols. For memory T cell responses, blood samples were drawn from patients before and after 3 or 4 cycles of ipilimumab. Pyrosequencing analyses of 16S rRNA of gene amplicons in patients feces pre- and post-injections of ipilimumab (V0, V1, V2) were performed according to n° SC12-018; ID RCB: 2012-A01496-37 pilot study endpoints by GATC Biotech AG (Konstanz, Germany).
Assessing CD4^+ T cell memory responses. Murine systems. Bone marrow-derived dendritic cells (BM-DCs) were generated from femurs and tibiae of C57BL/6 mice, cultured for 7 days in Iscove's medium (Sigma-Aldrich) with J558 supernatant (final GM-CSF concentration of 40 ng/ml), 10% FCS, 100 IU/ml penicillin/streptomycin, 2 mM L-glutamine, 50 μM 2-mercaptoethanol (Sigma-Aldrich) and split every 3-4 days. At day 7, BM-DCs were infected with the isolated bacterial strains at multiplicity of infection (MOI) of 10 or 50, for 1 h at 37° C. in complete Iscove's medium without antibiotics, onto specific low binding 6 wells plates (Sigma). Cells were then washed with PBS and incubated in complete Iscove's medium supplemented with gentamicin (50 μg/ml) to kill extracellular bacteria. For Burkholderia cepacia, the antibiotic meropenem (2 μg/mL, Astra Zeneca) was required. After 24 h, BM-DCs were cultured together with CD4^+ T cells purified from the spleens of mice that had received 7 days treatment of anti-CTLA4 mAb (i.e 3 anti-CTLA4 mAb injections, as detailed above) in complete RPMI medium. CD4^+ T cells were isolated by depletion of non CD4^+ T cells using a cocktail of biotin-conjugated antibodies against CD8a, CD11b, CD11c, CD19, CD45R (B220), CD49b (DX5), CD105, Anti-MHC-class II, Ter-119 and TCRγ/δ as primary labeling reagent. The cells were then magnetically labeled with Anti-Biotin MicroBeads (Miltenyi Biotec, France). […]

[3] = tested on: gut microbiome of metastatic melanoma patients; test: Pyrosequencing of 16S rRNA gene amplicons of patients' feces and clustering into enterotypes A, B, C; assay type: in vivo, human
Description: as §1
GOLD: Prospective immunomonitoring study of patients with metastatic melanoma receiving four injections of Ipilimumab every three weeks. In addition to peripheral blood sampling for memory T cell responses assessment, feces were collected before each Ipilimumab injection. Feces samples were frozen at −80° C. and sent for 16RNA pyrosequencing analysis at GATC Biotech AG (Konstanz, Germany).

metastatic melanoma = settings: cited from earlier work; for Durable disease control: after more than 7 years of follow-up, MM

## CNC(=N)NCCC[C@H](N)C(=O)O [L-NMMA, NG-monomethyl-L-arginine]
MCA205 sarcoma; 2 mg per mouse daily i.p.
  9D9 mAb-induced tumoricidal activity upon neutralization of nitric oxide: failed to affect; also recorded: did not alter the antitumor effects

## CN[C@H](CC(C)C)C(=O)N[C@H]1C(=O)N[C@@H](CC(N)=O)C(=O)N[C@H]2C(=O)N[C@H]3C(=O)N[C@H](C(=O)N[C@H](C(=O)O)c4cc(O)cc(O)c4-c4cc3ccc4O)[C@H](O)c3ccc(c(Cl)c3)Oc3cc2cc(c3O[C@@H]2O[C@H](CO)[C@@H](O)[C@H](O)[C@H]2O[C@H]2C[C@](C)(N)[C@H](O)[C@H](C)O2)Oc2ccc(cc2Cl)[C@H]1O [Vancomycin, vancomycin]
[1]
  Histopathological score of colonic mucosae under anti-CTLA4: worsened the histopathological score
[2]; vancomycin conditioning
  Depletion of Bacteroidales and Burkholderiales provoked by CTLA4 blockade: prevented the depletion; also recorded: prevented the loss
[2]; vancomycin in drinking water
  Representation of Bacteroidales (and Enterobacteriales) at the expense of Clostridiales: overrepresentation
MCA205 sarcoma
  Effect of antibiotic regimen on the antitumor effects of 9D9 Ab against MCA205 sarcomas: boosted the antitumor effects; also recorded: augments the tumoricidal effects
MCA205 sarcoma; listed as vancomycin
  Effect of antibiotic regimen on the antitumor effects of 9D9 Ab against MCA205 sarcomas: ameliorated the tumor growth reduction

## Ipilimumab
CD4+CD45RO+ T cells; at least in some cases
  Decreased commensal-specific Th1 immunity of cancer patients: restored
CD4+CD45RO+ T cells; melanoma patients, after at least 2 injections
  IL-10 production by T cells responding to Bf, B. thetaiotaomicron and to some extent Burkholderia cepacia: inhibited
CD4+CD45RO+ T cells; melanoma patients, after at least 2 injections, not E. coli, E. faecalis or irrelevant bacteria
  IFNγ secretion by T cells responding to Bf and B. thetaiotaomicron: significantly increased
CD4+CD45RO+ T cells; paired analyses on 5-12 patients
  B. thetaiotaomicron-specific Tr1 immune responses: decrease
[3]; from 26 before therapy
  Proportion of MM patients falling into cluster C during therapy: 39%
[3]; from 58 before therapy
  Proportion of MM patients belonging to cluster B during therapy: 39%
[3]; paired analysis of feces in 12 cases, 2 out of 7
  Stools of a B pattern that turned into the C favorable enterotype: 29%
Metastatic melanoma
  Durable disease control: about 20%
Metastatic melanoma; listed as ipilimumab
  Durable disease control: approximately 20%
Metastatic melanoma; human, in vivo, iv
  Immune-related adverse events of grade III-IV: 20%
Metastatic melanoma; human, in vivo
  Life threatening immune-related adverse events: < 5%

## colistin
MCA205 sarcoma
  Effect of antibiotic regimen on the antitumor effects of 9D9 Ab against MCA205 sarcomas: compromised the antitumor effects

## lipoteichoic acid
MCA205 sarcoma; oral administration, 500 μg per mouse
  Restoration of 9D9 mAb-induced antitumor effects lost in ACS-treated mice: failed to restore
